Consider 19 compounds from patent US10793542B2, “Hetroarylamine compounds for modulating the hedgehog pathway and preparing method and uses thereof” (DEVELOPMENT CENTER FOR BIOTECHNOLOGY, priority 2016, dated 2020).

Some results are limits rather than exact numbers.

Common to all, as to assay type: cell-based
Assay [1] relates to hedgehog pathway (pGL3-7xGli-Luciferase reporter in C3H10T1/2 cells). Put plainly: Transient transfection of C3H10T1/2 and Gli-Luc reporter assay with SAG stimulation. To be noted: Mus musculus, C3H 10T1/2, SAG 20 nM, 48 hr, read-out: Inhibition of Gli-Luc expression [IC50. As for the experimental part: A cell-based screen for inhibitors of the hedgehog pathway was performed using a transient transfection system in C3H10T1/2 cells with pGL3-7xGli-Luciferase reporter plasmids C3H10T1/2 cells (ATCC, cat.#CCL-226) were seeded into 6-well plates at 8×10^4 cells/well in a BME medium containing 10% heat-inactivated FBS. Cells were transfected the next morning with 500 ng/well pGL3-7xGli-Luciferase reporter plasmids and 100 ng/well pRL-TK Renilla luciferase reporter plasmids (Promega)using GeneJuice transfection reagent (Novagene). After 24 h, transfected cells were collected by trypsin treatment and re-plated in 96-well plates in an RPMI medium containing 0.5% FBS with a density of 1.5×10^4 cells/well. Compounds were dissolved in DMSO with serial dilutions and were then added to the assay plate. SAG (Hh-Ag 1.3) (Santa Cruz) was added to the assay plated for a final concentration 20 nM. The assay plates were incubated at 37° C. for 48 hr.
(§1) Firefly luciferase and Renilla luciferase activity was determined using the Dual-Glo Luciferase reporter assay system (Promega) with a Victor3 plate reader (PerkinElmer Life Sciences). Firefly luciferase readings were normalized to Renilla luciferase to correct for transfection efficiency. Luminance reading for the C3H10T1/2-Gli-Luc assay was normalized based on DMSO control with SAG stimulation (100% pathway activity) and without SAG stimulation (0% pathway activity). IC50 values, defined as the inflection point of the logistic curve, were determined by nonlinear regression using the Prism 5 software (GraphPad).
On the technique in general: Reporter assays use an easily measured gene product as a stand-in for the process of interest.

The target in a further assay is T1, Smo D473H mutant (Homo sapiens, UniProt Q99835, D473H).
T1 construct: expressed in transfected cells; host or cells: C3H10T1/2 cells (ATCC CCL-226), transient transfection with pLPCX-SMO-D473H
T1 sequence (Q99835 28-787 D473H): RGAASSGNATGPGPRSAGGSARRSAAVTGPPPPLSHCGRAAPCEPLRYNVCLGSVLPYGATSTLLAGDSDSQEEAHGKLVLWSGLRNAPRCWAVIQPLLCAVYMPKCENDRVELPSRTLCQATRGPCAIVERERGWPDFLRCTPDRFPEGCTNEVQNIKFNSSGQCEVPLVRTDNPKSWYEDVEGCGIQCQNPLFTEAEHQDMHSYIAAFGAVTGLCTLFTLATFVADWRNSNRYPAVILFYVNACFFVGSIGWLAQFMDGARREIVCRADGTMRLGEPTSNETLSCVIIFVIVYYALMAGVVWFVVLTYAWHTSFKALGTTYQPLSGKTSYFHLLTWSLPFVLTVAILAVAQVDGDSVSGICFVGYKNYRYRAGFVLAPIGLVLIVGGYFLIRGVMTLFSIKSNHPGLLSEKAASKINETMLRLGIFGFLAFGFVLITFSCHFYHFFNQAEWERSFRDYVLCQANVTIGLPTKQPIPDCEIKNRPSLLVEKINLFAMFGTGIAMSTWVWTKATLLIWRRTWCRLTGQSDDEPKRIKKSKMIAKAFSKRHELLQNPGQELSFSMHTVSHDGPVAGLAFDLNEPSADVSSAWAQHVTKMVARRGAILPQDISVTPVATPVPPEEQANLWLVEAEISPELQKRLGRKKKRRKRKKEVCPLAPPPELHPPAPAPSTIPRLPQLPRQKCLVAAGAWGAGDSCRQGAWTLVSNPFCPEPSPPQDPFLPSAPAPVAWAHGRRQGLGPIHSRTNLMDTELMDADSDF
The experiment in a line: Reporter assay of C3H10T1/2-Gli-Luc cells transfected with Smo D473H mutant, without SAG. To be noted: C3H10T1/2 cells transfected with pLPCX-SMO-D473H, no SAG, 48 hr; read-out: Inhibition of C3H10T1/2-Gli-Luc-Smo-D473H [IC50. The procedure: (§2) A transient transfection system with a Smo wild type or a Smo D473H mutant was also used for compound screening. For the SMO inhibition experiments, cells were transfected with an additional 500 ng/well of wild-type or D473H-mutant type SMO construct (pLPCX-SMO or pLPCX-SMO-D473H). After 24 h, transfected cells were collected by trypsin treatment and re-plated in 96-well plates in an RPMI medium containing 0.5% FBS with a density of 1.5×10^4 cells/well. Compounds were dissolved in DMSO with serial dilutions and were then added to the assay plate. The assay plates were incubated at 37° C. for 48 hr.
as §1
(§3) The reporter assay of C3H10T1/2-Gli-Luc cells transfected with a wild-type, D473H mutant Smo mutant was carried out with the same protocol but without SAG stimulation. Luminance reading for the SMO inhibition experiments assay was normalized based on DMSO control (100% of the pathway activity) and a known Smo antagonist (ALLO-2 at 10 μM, 0% of the pathway activity).

In the next assay the target is T2, Smo wild type (Homo sapiens, UniProt Q99835).
T2 construct: expressed in transfected cells; host or cells: C3H10T1/2 cells (ATCC CCL-226), transient transfection with pLPCX-SMO
T2 sequence (Q99835 28-787): as the sequence (Q99835 28-787 D473H) above, with H446D counted along it
Put plainly: Reporter assay of C3H10T1/2-Gli-Luc cells transfected with wild-type Smo, without SAG. To be noted: C3H10T1/2 cells transfected with pLPCX-SMO, no SAG, 48 hr; read-out: Inhibition of C3H10T1/2-Gli-Luc-Smo-WT [IC50. As for the experimental part:
as §2, §1, §3

Take `CSc1cnc(Nc2ccc(C(=O)Nc3cc(CN4CCOCC4)ccc3F)cc2F)nc1-c1ccc(F)cc1` [Compound 57, 3-Fluoro-N-(2-fluoro-5-morpholin-4-ylmethyl-phenyl)-4-[4-(4-fluoro-phenyl)-5-methylsulfanyl-pyrimidin-2-ylamino]-benzamide]: the IC50 was less than 100 nM in assay [1], 100 to 1000 nM on Smo D473H mutant and less than 100 nM on Smo wild type.

Regarding `CSc1cnc(Nc2ccc(C(=O)Nc3cc(CN4CCOCC4)ccc3C)cn2)nc1-c1ccc(OC(F)(F)F)cc1` [Compound 63, N-(2-Methyl-5-morpholin-4-ylmethyl-phenyl)-6-[5-methylsulfanyl-4-(4-trifluoromethoxy-phenyl)-pyrimidin-2-ylamino]-nicotinamide], the IC50 (in assay [1]; on Smo D473H mutant; at Smo wild type) was less than 100 nM throughout.

`CCN(CC)Cc1ccc(C)c(NC(=O)c2ccc(Nc3cc(-c4ccc(OC(F)(F)F)cc4)c(SC)cn3)cc2)c1` [Compound 87, N-(5-((diethylamino)methyl)-2-methylphenyl)-4-((5-(methylthio)-4-(4-(trifluoromethoxy)phenyl)pyridin-2-yl)amino)benzamide]: the IC50 (in assay [1]; at Smo D473H mutant; on Smo wild type) was less than 100 nM throughout.

As to `COc1ccc(CN2CCOCC2)cc1NC(=O)c1ccc(Nc2ncc(SC)c(-c3ccc(OC(F)(F)F)cc3)n2)c(F)c1` [Compound 58, 3-Fluoro-N-(2-methoxy-5-morpholin-4-ylmethyl-phenyl)-4-[5-methylsulfanyl-4-(4-trifluoromethoxy-phenyl)-pyrimidin-2-ylamino]-benzamide], the IC50 was less than 100 nM in assay [1], 100 to 1000 nM at Smo D473H mutant and less than 100 nM at Smo wild type.

Regarding `CSc1cnc(Nc2ccc(C(=O)Nc3cc(CN(C)C)ccc3C)cc2)cc1-c1ccc(OC(F)(F)F)cc1` [Compound 83, N-(5-Dimethylaminomethyl-2-methyl-phenyl)-4-[5-methylsulfanyl-4-(4-trifluoromethoxy-phenyl)-pyridin-2-ylamino]-benzamide], the IC50 (in assay [1]; on Smo D473H mutant; on Smo wild type) was less than 100 nM throughout.

On to `CCOc1cnc(Nc2ccc(C(=O)Nc3cc(CN(CC)CC)ccc3C)cc2)nc1-c1ccc(F)cc1` [Compound 77, N-(5-Diethylaminomethyl-2-methyl-phenyl)-4-[5-ethoxy-4-(4-fluoro-phenyl)-pyrimidin-2-ylamino]-benzamide], for which the IC50 in assay [1] was less than 100 nM; at Smo D473H mutant it was 100 to 1000 nM; at Smo wild type, less than 100 nM.

Take `CSc1cnc(Nc2ccc(C(=O)Nc3cc(CN4CCN(C)CC4)ccc3C)cc2)cc1-c1ccc(OC(F)(F)F)cc1` [Compound 82, N-[2-Methyl-5-(4-methyl-piperazin-1-ylmethyl)-phenyl]-4-[5-methylsulfanyl-4-(4-trifluoromethoxy-phenyl)-pyridin-2-ylamino]-benzamide]: the IC50 (in assay [1]; on Smo D473H mutant; at Smo wild type) was less than 100 nM each time.

For the compound `CSc1cnc(Nc2ccc(C(=O)Nc3cc(CN4CCOCC4)ccc3C)cc2)nc1-c1ccc(C(F)(F)F)nc1` [Compound 68, N-(2-Methyl-5-morpholin-4-ylmethyl-phenyl)-4-[5-methylsulfanyl-4-(6-trifluoromethyl-pyridin-3-yl)-pyrimidin-2-ylamino]-benzamide], the IC50 is 100 to 1000 nM in assay [1], 100 to 1000 nM on Smo D473H mutant and less than 100 nM on Smo wild type.

With `CSc1cnc(Nc2ccc(C(=O)Nc3cc(CN4CCOCC4)ccc3F)cc2)nc1-c1ccc(OC(F)(F)F)cc1` [Compound 70, N-(2-Fluoro-5-morpholin-4-ylmethyl-phenyl)-4-[5-methylsulfanyl-4-(4-trifluoromethoxy-phenyl)-pyrimidin-2-ylamino]-benzamide], the IC50 (in assay [1]; at Smo D473H mutant; at Smo wild type) was less than 100 nM in each case.

As to `CCN(CC)Cc1ccc(C)c(NC(=O)c2ccc(Nc3ncc(SC)c(-c4ccc(F)cc4)n3)c(F)c2)c1` [Compound 53, N-(5-Diethylaminomethyl-2-methyl-phenyl)-3-fluoro-4-[4-(4-fluoro-phenyl)-5-methylsulfanyl-pyrimidin-2-ylamino]-benzamide], the IC50 (in assay [1]; on Smo D473H mutant; at Smo wild type) was less than 100 nM throughout.

For the compound `CSc1cnc(Nc2ccc(C(=O)Nc3c(C)cccc3C)cc2)nc1-c1ccc(C#N)cc1` [Compound 2, 4-[4-(4-Cyano-phenyl)-5-methylsulfanyl-pyrimidin-2-ylamino]-N-(2,6-dimethyl-phenyl)-benzamide], the IC50 (in assay [1]; on Smo D473H mutant; at Smo wild type) was 100 to 1000 nM in each case.

On to `CSc1cnc(Nc2ccc(C(=O)Nc3cc(CN4CCOCC4)ccc3C)cc2)cc1-c1ccc(OC(F)(F)F)cc1` [Compound 81, N-(2-Methyl-5-morpholin-4-ylmethyl-phenyl)-4-[5-methylsulfanyl-4-(4-trifluoromethoxy-phenyl)-pyridin-2-ylamino)-benzamide], for which the IC50 (in assay [1]; on Smo D473H mutant; on Smo wild type) was less than 100 nM in each case.

Consider `CSc1cnc(Nc2ccc(C(=O)Nc3cc(CN4CCCCC4)ccc3C)cc2)nc1-c1ccc(F)cc1` [Compound 48, 4-[4-(4-Fluoro-phenyl)-5-methylsulfanyl-pyrimidin-2-ylamino]-N-(2-methyl-5-piperidin-1-ylmethyl-phenyl)-benzamide], for which the IC50 in assay [1] was less than 100 nM; on Smo D473H mutant, 100 to 1000 nM; on Smo wild type, less than 100 nM.

In the case of `CSc1cnc(Nc2ccc(C(=O)Nc3c(F)cccc3F)cc2)nc1-c1cccnc1F` [Compound 8, N-(2,6-Difluoro-phenyl)-4-[4-(2-fluoro-pyridin-3-yl)-5-methylsulfanyl-pyrimidin-2-ylamino]-benzamide], the IC50 (in assay [1]; on Smo D473H mutant; at Smo wild type) was 100 to 1000 nM in each case.

`CSc1cnc(Nc2ccc(C(=O)Nc3cc(CN4CCN(C)CC4)ccc3C)cc2)cc1-c1ccc(C(F)(F)F)cc1` [Compound 90, N-(2-methyl-5-((4-methylpiperazin-1-yl)methyl)phenyl)-4-((5-(methylthio)-4-(4-(trifluoromethyl)phenyl)pyridin-2-yl)amino)benzamide]: the IC50 in assay [1] is less than 100 nM; at Smo D473H mutant, 100 to 1000 nM; at Smo wild type, less than 100 nM.

As for `CSc1cnc(Nc2ccc(C(=O)Nc3c(C)cccc3C)cc2)nc1-c1cccnc1F` [Compound 6, N-(2,6-Dimethyl-phenyl)-4-[4-(2-fluoro-pyridin-3-yl)-5-methylsulfanyl-pyrimidin-2-ylamino]-benzamide], the IC50 (in assay [1]; on Smo D473H mutant; at Smo wild type) was less than 100 nM throughout.

For `CSc1cnc(Nc2ccc(C(=O)Nc3ccc(C(F)(F)F)c(Cl)c3)cc2)nc1-c1ccc(C#N)cc1` [Compound 4, N-(3-Chloro-4-trifluoromethyl-phenyl)-4-[4-(4-cyano-phenyl)-5-methylsulfanyl-pyrimidin-2-ylamino]-benzamide], the IC50 (in assay [1]; on Smo D473H mutant; at Smo wild type) was 100 to 1000 nM in each case.

With `CSc1cnc(Nc2ccc(C(=O)Nc3cc(CN4CCN(C)CC4)ccc3C)cc2)nc1-c1ccc(C#N)cc1` [Compound 35, 4-[4-(4-Cyano-phenyl)-5-methylsulfanyl-pyrimidin-2-ylamino]-N-[2-methyl-5-(4-methyl-piperazin-1-ylmethyl)-phenyl]-benzamide], the IC50 was less than 100 nM in assay [1], 100 to 1000 nM at Smo D473H mutant and less than 100 nM on Smo wild type.

Take `CSc1cnc(Nc2ccc(C(=O)Nc3cc(CN4CCN(C)CC4)ccc3C)cc2)nc1-c1ccc(OC(F)(F)F)cc1` [Compound 37, N-[2-Methyl-5-(4-methyl-piperazin-1-ylmethyl)-phenyl]-4-[5-methylsulfanyl-4-(4-trifluoromethoxy-phenyl)-pyrimidin-2-ylamino]-benzamide]: the IC50 is less than 100 nM in assay [1], 100 to 1000 nM on Smo D473H mutant and less than 100 nM on Smo wild type.
